From patent US8053603B2, “Tetralone-based monoamine reuptake inhibitors” (Sunovion Pharmaceuticals Inc., priority 2006, dated 2011)
Where two headings read alike, the source gives them in different places.

Assays:
Format in all cases: cell-based
[1] = biological target: T1, recombinant human serotonin transporter (Homo sapiens, UniProt P31645); experiment: Serotonin functional uptake assay for human reuptake transporter; conditions: [3H]serotonin uptake, HEK-293 cells expressing human serotonin transporter; read-out: Human IC50 (nM) SERT
T1 construct: expressed in transfected cells; host or cells: HEK-293
Description: Serotonin Functional Uptake Assay for Human Reuptake Transporter
HEK-293 cells expressing human serotonin transporter were plated before the assay. […] Cells with internalized [^3H]serotonin were washed and the amount of tritium taken into cells is counted using a liquid scintillation counter to determine [^3H]serotonin uptake.

[2] = biological target: T2, recombinant human norepinephrine transporter (Homo sapiens, UniProt P23975); experiment: Norepinephrine functional uptake assay for human reuptake transporter; conditions: [3H]norepinephrine uptake, HEK293 or MDCK cells expressing human norepinephrine transporter
T2 construct: expressed in transfected cells; host or cells: HEK293 or MDCK
Description: Norepinephrine Functional Uptake Assay for Human Reuptake Transporter
The cells were plated before the assay. Test compound and/or vehicle was preincubated with cells in modified HEPES buffer pH 7.1 or pH 7.4 for 20 minutes at 18 to 25° C. . […] After the cells were washed to remove [^3H]norepinephrine not internalized, the cells were lysed, and the amount of tritium in the cell lysate was measured using a liquid scintillation counter to determine [^3H]norepinephrine uptake. Non-specific binding of tritium was measured in a control reaction containing 10 μM imipramine (or 10 μM nisoxetine), and was subtracted from the counts for assays to correct for non-specific binding of tritium. Reduction of [^3H]norepinephrine uptake by 50 percent or more (≧50%) relative to an uninhibited control reaction indicates significant inhibitory activity.

[3] = biological target: T3, recombinant human dopamine transporter (Homo sapiens, UniProt Q01959); experiment: Dopamine functional uptake assay for human reuptake transporter; conditions: [3H]dopamine uptake, CHO-K1 or HEK293 cells expressing human dopamine transporter; read-out: Human IC50 (nM) DAT
T3 construct: expressed in transfected cells; host or cells: CHO-K1 or HEK293
Description: Dopamine Functional Uptake Assay for Human Reuptake Transporter
Either CHO-K1 or HEK293 cells expressing human recombinant dopamine transporter were plated before the assay. Test compound and/or vehicle was preincubated with cells in modified HEPES buffer pH 7.1 or pH 7.4 for 20 minutes at 18 to 25° C. and 50 nM [^3H]dopamine was then added for an additional timed incubation period (10 to 30 minutes). After washing the cells to remove [^3H]dopamine not internalized, the cells were lysed, and the amount of tritium in the lysate was measured using a liquid scintillation counter to determine [^3H]dopamine uptake. Non-specific binding of tritium was measured in a control reaction containing 10 μM nomifensine, and was subtracted from the counts for assays to correct for non-specific binding of tritium. Reduction of [^3H]dopamine uptake by 50 percent or more (≧50%) relative to an uninhibited control reaction indicates significant inhibitory activity.

T3 sequence (Q01959 whole entry): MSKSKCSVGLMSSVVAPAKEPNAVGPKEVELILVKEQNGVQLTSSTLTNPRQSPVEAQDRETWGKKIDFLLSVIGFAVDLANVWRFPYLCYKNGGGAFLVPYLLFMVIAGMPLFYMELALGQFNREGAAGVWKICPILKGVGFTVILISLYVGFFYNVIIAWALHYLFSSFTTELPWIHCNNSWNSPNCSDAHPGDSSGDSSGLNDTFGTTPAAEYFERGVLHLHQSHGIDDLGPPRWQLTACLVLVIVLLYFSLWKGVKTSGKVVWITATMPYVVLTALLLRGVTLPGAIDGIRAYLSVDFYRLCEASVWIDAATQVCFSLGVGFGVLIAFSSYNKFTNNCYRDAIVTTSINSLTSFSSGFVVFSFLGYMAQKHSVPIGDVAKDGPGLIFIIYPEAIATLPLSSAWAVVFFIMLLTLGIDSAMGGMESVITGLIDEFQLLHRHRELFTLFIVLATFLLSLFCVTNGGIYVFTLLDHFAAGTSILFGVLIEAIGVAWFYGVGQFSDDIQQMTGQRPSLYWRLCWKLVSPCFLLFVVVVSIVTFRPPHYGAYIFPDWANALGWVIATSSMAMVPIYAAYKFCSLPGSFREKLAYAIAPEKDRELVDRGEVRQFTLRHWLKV
T2 sequence (P23975 whole entry): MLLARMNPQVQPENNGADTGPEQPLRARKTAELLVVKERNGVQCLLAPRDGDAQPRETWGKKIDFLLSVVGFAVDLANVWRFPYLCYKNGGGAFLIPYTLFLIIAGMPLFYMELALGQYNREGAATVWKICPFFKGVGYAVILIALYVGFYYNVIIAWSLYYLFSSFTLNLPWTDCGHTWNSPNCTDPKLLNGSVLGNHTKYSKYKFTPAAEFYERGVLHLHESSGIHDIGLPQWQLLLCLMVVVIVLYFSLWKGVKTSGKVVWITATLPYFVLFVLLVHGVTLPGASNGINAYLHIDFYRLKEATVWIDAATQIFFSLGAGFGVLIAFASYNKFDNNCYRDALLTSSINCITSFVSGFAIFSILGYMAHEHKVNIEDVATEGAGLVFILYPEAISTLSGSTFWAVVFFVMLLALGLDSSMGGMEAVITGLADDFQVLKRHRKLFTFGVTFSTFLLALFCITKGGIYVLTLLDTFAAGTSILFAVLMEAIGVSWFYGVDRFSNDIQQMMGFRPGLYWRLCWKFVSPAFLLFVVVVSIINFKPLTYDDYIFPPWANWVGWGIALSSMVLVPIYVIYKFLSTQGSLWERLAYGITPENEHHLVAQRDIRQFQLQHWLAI
T1 sequence (P31645 whole entry): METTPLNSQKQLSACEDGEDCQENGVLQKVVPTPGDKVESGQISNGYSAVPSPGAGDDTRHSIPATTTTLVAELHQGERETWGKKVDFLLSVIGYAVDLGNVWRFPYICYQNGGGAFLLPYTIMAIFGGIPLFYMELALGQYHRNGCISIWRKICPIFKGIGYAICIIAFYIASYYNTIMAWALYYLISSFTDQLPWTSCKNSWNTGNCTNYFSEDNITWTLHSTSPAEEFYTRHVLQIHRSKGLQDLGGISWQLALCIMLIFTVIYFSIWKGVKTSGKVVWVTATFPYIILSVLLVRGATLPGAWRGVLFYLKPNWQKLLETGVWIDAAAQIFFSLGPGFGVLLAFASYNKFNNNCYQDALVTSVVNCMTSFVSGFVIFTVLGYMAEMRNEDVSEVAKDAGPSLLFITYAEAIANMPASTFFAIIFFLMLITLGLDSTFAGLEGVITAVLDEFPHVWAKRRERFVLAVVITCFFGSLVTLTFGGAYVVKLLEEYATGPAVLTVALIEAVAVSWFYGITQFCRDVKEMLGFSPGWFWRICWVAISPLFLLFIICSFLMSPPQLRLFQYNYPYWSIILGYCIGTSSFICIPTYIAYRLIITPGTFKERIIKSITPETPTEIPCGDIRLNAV

| Compound | IC50 [1] [nM] | IC50 ([2]; read-out: Human IC50 (nM) NET) [nM] | IC50 [3] [nM] | IC50 ([2]; Human IC50 (nM) NET) [nM] |
| --- | --- | --- | --- | --- |
| CN[C@@H]1Cc2cccc(OC)c2[C@H](c2ccc(Cl)c(Cl)c2)C1 (single isomer, unassigned) [Compound 32b.1, 4-(3,4-dichlorophenyl)-5-methoxy-N-methyl-1,2,3,4-tetrahydronaphthalen-2-amine] | 359 | 2330 | 83 | – |
| CN[C@@H]1Cc2cccc(OC)c2[C@H](c2ccc(Cl)c(Cl)c2)C1 (single isomer, unassigned) [Compound 32b.2, 4-(3,4-dichlorophenyl)-5-methoxy-N-methyl-1,2,3,4-tetrahydronaphthalen-2-amine] | 307 | 2320 | 496 | – |
| CN[C@H]1Cc2cc(OC)ccc2[C@@H](c2ccc(Cl)c(Cl)c2)C1 (single isomer, unassigned) [Compound 32c.1, 4-(3,4-dichlorophenyl)-7-methoxy-N-methyl-1,2,3,4-tetrahydronaphthalen-2-amine] | 68 | 571 | 18 | – |
| CN[C@H]1Cc2cc(OC)ccc2[C@@H](c2ccc(Cl)c(Cl)c2)C1 (single isomer, unassigned) [Compound 32c.2, 4-(3,4-dichlorophenyl)-7-methoxy-N-methyl-1,2,3,4-tetrahydronaphthalen-2-amine] | 29 | 112 | 109 | – |
| CN[C@H]1Cc2cc(OC)ccc2[C@@H](c2ccc(Cl)c(Cl)c2)C1 (single isomer, unassigned) [Compound 32c.4, 4-(3,4-dichlorophenyl)-7-methoxy-N-methyl-1,2,3,4-tetrahydronaphthalen-2-amine] | 209 | 111 | 78 | – |
| COc1ccc2c(c1)C(c1ccc(Cl)c(Cl)c1)CC(N(C)C)C2 (single isomer, unassigned) [Compound 33a.1, 4-(3,4-dichlorophenyl)-6-methoxy-N,N-dimethyl-2,3,4-tetrahydronaphthalen-2-amine] | 475 | 2310 | 781 | – |
| COc1ccc2c(c1)C(c1ccc(Cl)c(Cl)c1)CC(N(C)C)C2 (single isomer, unassigned) [Compound 33a.2, 4-(3,4-dichlorophenyl)-6-methoxy-N,N-dimethyl-2,3,4-tetrahydronaphthalen-2-amine] | 156 | 2260 | 396 | – |
| COc1ccc2c(c1)C(c1ccc(Cl)c(Cl)c1)CC(N(C)C)C2 (single isomer, unassigned) [Compound 33a.3, 4-(3,4-dichlorophenyl)-6-methoxy-N,N-dimethyl-2,3,4-tetrahydronaphthalen-2-amine] | 207 | 1170 | 2290 | – |
| COc1ccc2c(c1)C(c1ccc(Cl)c(Cl)c1)CC(N(C)C)C2 (single isomer, unassigned) [Compound 33a.4, 4-(3,4-dichlorophenyl)-6-methoxy-N,N-dimethyl-2,3,4-tetrahydronaphthalen-2-amine] | 808 | 1700 | 1410 | – |
| COc1ccc2c(c1)C[C@H](N(C)C)C[C@@H]2c1ccc(Cl)c(Cl)c1 (single isomer, unassigned) [Compound 33c.1, 4-(3,4-dichlorophenyl)-7-methoxy-N,N-dimethyl-1,2,3,4-tetrahydronaphthalen-2-amine] | 24 | 943 | 194 | – |
| COc1ccc2c(c1)C[C@H](N(C)C)C[C@@H]2c1ccc(Cl)c(Cl)c1 (single isomer, unassigned) [Compound 33c.2, 4-(3,4-dichlorophenyl)-7-methoxy-N,N-dimethyl-1,2,3,4-tetrahydronaphthalen-2-amine] | 8 | 684 | 67 | – |
| COc1ccc2c(c1)C[C@H](N(C)C)C[C@@H]2c1ccc(Cl)c(Cl)c1 (single isomer, unassigned) [Compound 33c.3, 4-(3,4-dichlorophenyl)-7-methoxy-N,N-dimethyl-1,2,3,4-tetrahydronaphthalen-2-amine] | 616 | 906 | 83 | – |
| COc1ccc2c(c1)C[C@H](N(C)C)C[C@@H]2c1ccc(Cl)c(Cl)c1 (single isomer, unassigned) [Compound 33c.4, 4-(3,4-dichlorophenyl)-7-methoxy-N,N-dimethyl-1,2,3,4-tetrahydronaphthalen-2-amine] | 92 | 1900 | 224 | – |
| CN(C)[C@H]1CCc2ccccc2[C@H]1c1ccc(Cl)c(Cl)c1 (single isomer, unassigned) [Compound 37a, 1-(3,4-dichlorophenyl)-N,N-dimethyl-1,2,3,4-tetrahydronaphthalen-2-amine] | 355 | 2380 | 235 | – |
| CN(C)[C@H]1CCc2ccccc2[C@H]1c1ccc(Cl)c(Cl)c1 (single isomer, unassigned) [Compound 37b, 1-(3,4-dichlorophenyl)-N,N-dimethyl-1,2,3,4-tetrahydronaphthalen-2-amine] | 742 | 499 | 106 | – |
| CN(C)[C@H]1CCc2ccccc2[C@H]1c1ccc(Cl)c(Cl)c1 (single isomer, unassigned) [Compound 37c, 1-(3,4-dichlorophenyl)-N,N-dimethyl-1,2,3,4-tetrahydronaphthalen-2-amine] | 70 | 1190 | 284 | – |
| CN(C)[C@H]1CCc2ccccc2[C@H]1c1ccc(Cl)c(Cl)c1 (single isomer, unassigned) [Compound 37d, 1-(3,4-dichlorophenyl)-N,N-dimethyl-1,2,3,4-tetrahydronaphthalen-2-amine] | 3150 | 1010 | 36 | – |
| CNC1c2ccccc2CCC1c1ccc(Cl)c(Cl)c1 (single isomer, unassigned) [Compound 40a, 2-(3,4-dichlorophenyl)-N-methyl-1,2,3,4-tetrahydronaphthalen-l-amine] | 2470 | > 10000 | 3410 | – |
| CNC1c2ccccc2CCC1c1ccc(Cl)c(Cl)c1 (single isomer, unassigned) [Compound 40b, 2-(3,4-dichlorophenyl)-N-methyl-1,2,3,4-tetrahydronaphthalen-l-amine] | 7720 | > 10000 | 1790 | – |
| CN(C)[C@@H]1c2ccccc2CC[C@@H]1c1ccc(Cl)c(Cl)c1 (single isomer, unassigned) [Compound 41a, cis-2-(3,4-dichlorophenyl)-N,N-dimethyl-1,2,3,4-tetrahydronaphthalen-1-amine] | 3170 | > 10000 | 2280 | – |
| CN(C)[C@@H]1c2ccccc2CC[C@@H]1c1ccc(Cl)c(Cl)c1 (single isomer, unassigned) [Compound 41b, cis-2-(3,4-dichlorophenyl)-N,N-dimethyl-1,2,3,4-tetrahydronaphthalen-1-amine] | 9740 | > 10000 | 1120 | – |
| CC(N)C1=Cc2ccccc2[C@H](c2ccc(Cl)c(Cl)c2)C1 (single isomer, unassigned) [Compound 45] | 876 | – | 174 | 53 |
| CC(N)C1=Cc2ccccc2[C@H](c2ccc(Cl)c(Cl)c2)C1 (single isomer, unassigned) [Compound 46] | 50 | – | 1660 | 580 |
| CNC(C)C1=Cc2ccccc2[C@H](c2ccc(Cl)c(Cl)c2)C1 (single isomer, unassigned) [Compound 47] | 44 | 1180 | 1140 | – |
| CC(N)[C@@H]1Cc2ccccc2[C@H](c2ccc(Cl)c(Cl)c2)C1 (single isomer, unassigned) [Compound 52] | 8 | – | 622 | 122 |
| CC([C@@H]1Cc2ccccc2[C@H](c2ccc(Cl)c(Cl)c2)C1)N(C)C (single isomer, unassigned) [Compound 53] | 58 | 399 | 495 | – |
| CC([C@@H]1Cc2ccccc2[C@H](c2ccc(Cl)c(Cl)c2)C1)N(C)C (single isomer, unassigned) [Compound 54] | 815 | 1700 | 1900 | – |
| CC1C[C@@H](c2ccc(Cl)c(Cl)c2)c2ccccc2/C1=N\O (single isomer, unassigned) [Compound 57] | 3180 | 3890 | 997 | – |
